Assay results from patent US12344618B2, “Heterotricyclic derivative compound and use of same” (HANMI PHARMACEUTICAL CO., LTD., priority 2019, dated 2025).
Where two headings read alike, the source gives them in different places.

Legend:
[1] = Metabolic stability in mouse liver microsomes; format: in vitro ADME; details: 5 μM compound, 1 mg/mL mouse liver microsomes, 37° C., NADPH regenerating system
Experimental: (§1) In order to confirm the metabolic stability of the synthetic compounds in the liver, 5 μM test compound and 1 mg/mL human, dog, rat or mouse liver microsomes were allowed to react with each other at 37° C. in the presence of the NADPH regenerating system for 1 hour. After 1 hour, the reaction was terminated and the supernatant obtained by centrifugation was analyzed by HPLC. With the peak value obtained as the analysis result, the residual amount (%) was calculated using the following equation through the peak value of the test compound after 1 hour of the reaction versus the peak value of the test compound at 0 min. Residual amount (%)=(peak value of test compound after 1 hour of reaction/peak value of test compound at 0 min)×100

[2] = Mouse pharmacokinetics, oral single dose; format: in vivo; details: plasma, mice (ICR, male), oral single dose 30 mg/kg; for AUC: read-out: Area under oral curve (AUC)
Experimental: Pharmacokinetics of the synthetic compounds as EZH2 inhibitors in mice (ICR, 8-week-old, male) were tested.
The oral administration group was maintained in a fasting state from the day before the test to 4 hours after administration of the test compound. On the day of administration of the test compound, the weight of each animal was measured and each synthetic compound was formulated using a selected solvent based on 30 mg/kg (10 mL/kg). Each test compound was administered orally in a single dose, a certain amount of the blood was taken at a predetermined time, plasma was isolated therefrom, and the concentration of each test compound in the plasma was analyzed using LC-MS/MS (Waters UPLC H-Class/Xevo TQ; Waters, USA). Pharmacokinetic coefficients were calculated by a linear-log trapezoidal summation formula using a non-compartment analysis of the Phoenix™ WinNonlin (Certara, USA) program through the plasma concentration curve over time.

[3] = system: Pfeiffer (EZH2 A677G mutation); assay: Cell growth inhibition test, Pfeiffer; format: cell-based; details: Homo sapiens, read-out: Cell growth inhibitory activity (GI50, nM) Pfeiffer (EZH2 A677G mutation)
Experimental: Each type of the cultured cells was seeded in 6-well plates or 48-96 well plates, and subculture or medium replacement was performed every 3 to 4 days. Next, the cells were subcultured for a total of 7 to 14 days, and then seeded in 96-well plates. 3 to 5 days before the measurement of the effect, the cells were seeded in 96-well plates, and then the absorbance (Tz) on the day of seeding was measured. The absorbance after the reaction was measured by the plate reader device Synergy NeoAlpha (Biotek) using Cell-Titer-Glo Cell Viability Assay (Promega, G7573) according to the attached manual. Based on the absorbance (Tz) measured on the seeding day and the absorbance of each of the DMSO-treated group (C) and the sample-added group (Ti) measured on the day of effect determination, the percentage of cell proliferation inhibition was calculated according to the following Equation 1. [(Ti−Tz)/(C−Tz)]×100 for concentrations for which Ti≥Tz […] for concentrations for which Ti<Tz. [Equation 1]

[4] = Metabolic stability in human liver microsomes; format: in vitro ADME; details: 5 μM compound, 1 mg/mL human liver microsomes, 37° C., NADPH regenerating system
Experimental: as §1

[5] = target: EZH2 (Homo sapiens, UniProt Q15910); assay: Inhibitory activity against EZH2 methyltransferase (radiometric scintillation proximity assay); details: Enzyme inhibitory activity (IC50, nM) EZH2, 2.3 nmol/L enzyme, 90 minutes, room temperature;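 also: Read-out is substrate peptide methylation, captured on streptavidin-coated SPA beads and counted by scintillation, with the reaction run in Tris-HCl buffer at pH 8.0 containing 1% DMSO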
Experimental: (§2) The inhibitory activities of the synthetic compounds against EZH1 or EZH2 methyltransferase were measured. The experiment was conducted by Reaction Biology Corp., and the activity of EZH1 or EZH2 was measured using a radiometric scintillation proximity assay. […] The reaction buffer consisted of 50 mmol/L Tris-HCl (pH 8.0), 50 mmol/L NaCl, 1 mmol/L EDTA, 1 mmoL/L DTT, 1 mmol/L PMSF, and 1% DMSO. Trichloroacetic acid was added to terminate the reaction, and PVT streptavidin-coated SPA beads were added to each reaction solution, followed by further reaction at room temperature for 1 hour again. The methylation value of the substrate peptide was measured using the TopCount NXT plate reader.

[6] = target: T1, EZH1 (Homo sapiens, UniProt Q92800); assay: Inhibitory activity against EZH1 methyltransferase (radiometric scintillation proximity assay); format: biochemical; details: 2.3 nmol/L enzyme, 90 minutes, room temperature;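 also: Read-out is methylation of a substrate peptide, captured on streptavidin-coated SPA beads and counted by scintillation, in Tris-HCl buffer at pH 8.0 with 1% DMSO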
T1 construct: purchased Reaction Biology Corp. (contract assay)
Experimental: as §2

[7] = system: KARPAS-422 (EZH2 Y641N mutation); assay: Cell growth inhibition test, KARPAS-422; format: cell-based; details: KARPAS-422, culture time 7 days, read-out: Cell growth inhibitory activity (GI50, nM) KARPAS-422 (EZH2 Y641N mutation)
[8] = Homo sapiens, KARPAS-422, 168 h

T1 sequence (Q92800 whole entry): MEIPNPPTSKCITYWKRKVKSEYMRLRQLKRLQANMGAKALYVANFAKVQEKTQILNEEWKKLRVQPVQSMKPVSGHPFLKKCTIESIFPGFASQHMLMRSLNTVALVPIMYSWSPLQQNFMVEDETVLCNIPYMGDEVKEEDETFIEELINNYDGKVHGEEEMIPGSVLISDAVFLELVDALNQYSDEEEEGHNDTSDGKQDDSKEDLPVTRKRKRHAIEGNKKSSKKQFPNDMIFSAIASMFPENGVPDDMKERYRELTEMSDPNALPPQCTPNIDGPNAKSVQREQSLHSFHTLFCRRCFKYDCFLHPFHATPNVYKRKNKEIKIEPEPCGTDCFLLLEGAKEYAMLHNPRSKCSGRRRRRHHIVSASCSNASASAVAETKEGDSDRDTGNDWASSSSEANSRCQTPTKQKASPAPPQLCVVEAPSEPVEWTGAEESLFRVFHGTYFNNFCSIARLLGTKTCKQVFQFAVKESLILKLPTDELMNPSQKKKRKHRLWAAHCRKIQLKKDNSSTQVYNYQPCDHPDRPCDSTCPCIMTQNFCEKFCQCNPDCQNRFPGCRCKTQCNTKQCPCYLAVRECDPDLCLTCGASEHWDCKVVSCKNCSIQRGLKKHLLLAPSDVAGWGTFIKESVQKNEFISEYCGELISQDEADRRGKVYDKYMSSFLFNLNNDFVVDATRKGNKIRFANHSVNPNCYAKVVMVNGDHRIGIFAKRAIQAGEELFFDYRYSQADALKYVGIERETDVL
T1 sequence (O75530 whole entry partner): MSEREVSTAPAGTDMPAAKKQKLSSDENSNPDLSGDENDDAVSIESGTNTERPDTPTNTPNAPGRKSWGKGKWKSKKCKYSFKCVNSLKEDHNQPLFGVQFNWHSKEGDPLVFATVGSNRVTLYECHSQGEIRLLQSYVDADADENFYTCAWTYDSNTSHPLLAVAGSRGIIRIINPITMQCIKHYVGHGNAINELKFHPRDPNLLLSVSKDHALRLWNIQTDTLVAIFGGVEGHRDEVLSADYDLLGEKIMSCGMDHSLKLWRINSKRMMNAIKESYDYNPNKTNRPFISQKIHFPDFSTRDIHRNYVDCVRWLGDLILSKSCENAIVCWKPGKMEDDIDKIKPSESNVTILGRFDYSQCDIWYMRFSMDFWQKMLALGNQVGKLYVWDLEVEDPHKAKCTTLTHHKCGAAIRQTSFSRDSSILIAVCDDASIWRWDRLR
T1 sequence (Q15022 whole entry partner): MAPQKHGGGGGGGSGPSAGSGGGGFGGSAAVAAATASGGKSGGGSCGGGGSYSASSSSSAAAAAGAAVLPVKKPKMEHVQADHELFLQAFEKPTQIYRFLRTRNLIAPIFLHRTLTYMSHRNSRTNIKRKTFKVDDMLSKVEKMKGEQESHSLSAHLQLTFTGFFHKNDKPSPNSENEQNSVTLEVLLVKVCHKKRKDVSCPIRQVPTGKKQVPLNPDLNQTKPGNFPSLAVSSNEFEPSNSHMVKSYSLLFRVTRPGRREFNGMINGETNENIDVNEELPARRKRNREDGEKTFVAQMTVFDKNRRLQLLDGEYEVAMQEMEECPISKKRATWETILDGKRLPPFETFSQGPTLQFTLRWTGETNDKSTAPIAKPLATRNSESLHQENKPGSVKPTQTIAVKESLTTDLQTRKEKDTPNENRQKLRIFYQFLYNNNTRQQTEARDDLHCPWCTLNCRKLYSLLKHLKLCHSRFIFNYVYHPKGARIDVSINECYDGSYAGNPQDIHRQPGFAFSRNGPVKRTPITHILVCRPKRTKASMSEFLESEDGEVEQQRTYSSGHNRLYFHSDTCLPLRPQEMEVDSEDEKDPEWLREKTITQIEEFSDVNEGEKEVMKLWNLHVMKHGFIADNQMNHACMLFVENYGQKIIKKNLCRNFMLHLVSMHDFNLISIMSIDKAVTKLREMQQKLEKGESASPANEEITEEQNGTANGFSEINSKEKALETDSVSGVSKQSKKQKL
T1 sequence (Q09028 whole entry partner): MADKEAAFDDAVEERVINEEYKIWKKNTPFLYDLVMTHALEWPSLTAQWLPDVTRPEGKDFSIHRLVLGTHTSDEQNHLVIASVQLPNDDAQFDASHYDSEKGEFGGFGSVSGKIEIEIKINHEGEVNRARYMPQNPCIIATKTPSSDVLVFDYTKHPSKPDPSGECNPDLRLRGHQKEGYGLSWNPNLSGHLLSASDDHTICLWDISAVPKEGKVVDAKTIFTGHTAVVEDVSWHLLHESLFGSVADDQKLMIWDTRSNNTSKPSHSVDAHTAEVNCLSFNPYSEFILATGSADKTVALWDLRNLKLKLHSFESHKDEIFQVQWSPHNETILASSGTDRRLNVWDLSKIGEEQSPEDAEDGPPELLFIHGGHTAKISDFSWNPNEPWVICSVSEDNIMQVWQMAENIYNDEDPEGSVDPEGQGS
T1 sequence (Q6ZN18 whole entry partner): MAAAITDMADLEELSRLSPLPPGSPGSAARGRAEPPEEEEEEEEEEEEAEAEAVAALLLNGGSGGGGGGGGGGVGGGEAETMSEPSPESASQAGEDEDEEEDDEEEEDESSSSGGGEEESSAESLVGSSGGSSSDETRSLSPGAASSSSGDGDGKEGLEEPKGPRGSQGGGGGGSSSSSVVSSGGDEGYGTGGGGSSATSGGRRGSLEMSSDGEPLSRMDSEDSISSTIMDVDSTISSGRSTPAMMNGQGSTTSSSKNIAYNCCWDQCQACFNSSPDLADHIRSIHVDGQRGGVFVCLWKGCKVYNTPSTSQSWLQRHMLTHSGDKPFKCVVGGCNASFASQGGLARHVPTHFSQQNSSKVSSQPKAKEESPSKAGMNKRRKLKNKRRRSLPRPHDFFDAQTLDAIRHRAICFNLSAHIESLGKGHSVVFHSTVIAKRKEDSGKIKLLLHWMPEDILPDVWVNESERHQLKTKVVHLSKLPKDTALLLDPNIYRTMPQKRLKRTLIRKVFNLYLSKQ
Chain of EZH2 (Q15910 whole entry): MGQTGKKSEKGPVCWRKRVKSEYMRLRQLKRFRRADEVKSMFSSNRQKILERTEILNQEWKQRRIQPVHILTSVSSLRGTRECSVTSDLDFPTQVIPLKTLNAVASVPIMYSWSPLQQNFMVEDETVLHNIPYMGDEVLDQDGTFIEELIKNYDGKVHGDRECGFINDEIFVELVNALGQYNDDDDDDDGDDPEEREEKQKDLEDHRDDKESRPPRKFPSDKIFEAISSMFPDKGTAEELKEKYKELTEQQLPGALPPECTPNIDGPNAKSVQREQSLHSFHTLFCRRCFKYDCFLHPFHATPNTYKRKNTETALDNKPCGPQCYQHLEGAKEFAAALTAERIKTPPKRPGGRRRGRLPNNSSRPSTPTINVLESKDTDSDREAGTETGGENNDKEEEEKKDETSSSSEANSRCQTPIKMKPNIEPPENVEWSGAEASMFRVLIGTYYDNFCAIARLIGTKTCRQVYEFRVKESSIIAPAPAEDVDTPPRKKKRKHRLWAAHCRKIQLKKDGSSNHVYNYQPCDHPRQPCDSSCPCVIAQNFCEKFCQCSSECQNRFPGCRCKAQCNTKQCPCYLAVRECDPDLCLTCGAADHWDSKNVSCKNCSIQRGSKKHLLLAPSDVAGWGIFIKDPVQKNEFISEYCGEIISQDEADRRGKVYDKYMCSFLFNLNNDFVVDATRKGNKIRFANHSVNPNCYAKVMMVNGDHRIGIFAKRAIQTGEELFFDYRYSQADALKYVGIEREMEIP
Chain of EZH2 (O75530 whole entry partner): as the sequence (O75530 whole entry partner) above
Chain of EZH2 (Q15022 whole entry partner): as the sequence (Q15022 whole entry partner) above
Chain of EZH2 (Q09028 whole entry partner): as the sequence (Q09028 whole entry partner) above
Chain of EZH2 (Q6ZN18 whole entry partner): as the sequence (Q6ZN18 whole entry partner) above

| SMILES | Residual amount (%) of test compound after 1 hour of reaction, Mouse [1] | AUC ([2]; male, ICR, mouse, po, 30 mg/kg) | Half life T1/2 [2] | GI50 [3] | Residual amount (%) of test compound after 1 hour of reaction, Human [4] | IC50 [5] | IC50 [6] | GI50 [7, 8] | GI50 [7] | half-life ([2]; male, ICR, mouse, po, 30 mg/kg, read-out: Half life T1/2 (converted)) |
| --- | --- | --- | --- | --- | --- | --- | --- | --- | --- | --- |
| Cc1cc(C)c(CN2CCc3c(Cl)c4c(c(C)c3C2=O)OC(C)([C@H]2CC[C@H](N(C)C)CC2)O4)c(=O)[nH]1 (mixture of isomers) [Compound 9, 9-chloro-6-((4,6-dimethyl-2-oxo-1,2-dihydropyridin-3-yl)methyl)-2-(trans-4-(dimethylamino)cyclohexyl)-2,4-dimethyl-7,8-dihydro-[1,3]dioxolo[4,5-g]isoquinolin-5(6H)-one] | 56% | 14900 to 16400 ng·h/mL | 2.4~2.3 hr | 0.97 nM | 57% | 1.5 to 5 nM | 16 to 43 nM | 2 to 15 nM | – | – |
| Cc1cc(C)c(CN2CCc3c(Cl)c4c(c(C)c3C2=O)OC(C)([C@H]2CC[C@H](N(C)C)CC2)O4)c(=O)[nH]1 (single isomer, unassigned) [Compound 10, 9-chloro-6-((4,6-dimethyl-2-oxo-1,2-dihydropyridin-3-yl)methyl)-2-(trans-4-(dimethylamino)cyclohexyl)-2,4-dimethyl-7,8-dihydro-[1,3]dioxolo[4,5-g]isoquinolin-5(6H)-one] | 55% | – | – | 0.84 nM | 79% | 0.8 to 1.4 nM | 10 to 21 nM | – | 2.5 to 13 nM | – |
| Cc1cc(C)c(CN2CCc3c(C)c4c(c(C)c3C2=O)OC(C)([C@H]2CC[C@H](N(C)C)CC2)O4)c(=O)[nH]1 (single isomer, unassigned) [Compound 40, 6-((4,6-dimethyl-2-oxo-1,2-dihydropyridin-3-yl)methyl)-2-(trans-4-(dimethylamino)cyclohexyl)-2,4,9-trimethyl-7,8-dihydro-[1,3]dioxolo[4,5-g]isoquinolin-5(6H)-one] | 84% | – | – | 0.71 nM | 82% | 1.8 nM | 28 nM | – | 1.8 nM | – |
| Cc1cc(C)c(CN2CCc3c(Cl)c4c(c(C)c3C2=O)OC(C)([C@H]2CC[C@@H](N(C)C)CC2)O4)c(=O)[nH]1 (stereo partly drawn) [Compound 12, 9-chloro-6-((4,6-dimethyl-2-oxo-1,2-dihydropyridin-3-yl)methyl)-2-(cis-4-(dimethylamino)cyclohexyl)-2,4-dimethyl-7,8-dihydro-[1,3]dioxolo[4,5-g]isoquinolin-5(6H)-one] | 61% | – | – | 0.66 nM | 57% | 3.2 nM | 23 to 50 nM | 4.9 to 15 nM | – | – |
| COc1cc(C)[nH]c(=O)c1CN1CCc2c(Cl)c3c(c(C)c2C1=O)OC(C)([C@H]1CC[C@H](N(C)C)CC1)O3 (stereo partly drawn) [Compound 13, 9-chloro-2-(trans-4-(dimethylamino)cyclohexyl)-6-((4-methoxy-6-methyl-2-oxo-1,2-dihydropyridin-3-yl)methyl)-2,4-dimethyl-7,8-dihydro-[1,3]dioxolo[4,5-g]isoquinolin-5(6H)-one] | 79% | 1040 ng·h/mL | – | 0.27 nM | 82% | 1.8 to 2.3 nM | 23 to 35 nM | 1.8 to 9.6 nM | – | – |
| CN[C@H]1CC[C@H](C2(C)Oc3c(C)c4c(c(Cl)c3O2)CCN(Cc2c(C)cc(C)[nH]c2=O)C4=O)CC1 (stereo partly drawn) [Compound 34, 9-chloro-6-((4,6-dimethyl-2-oxo-1,2-dihydropyridin-3-yl)methyl)-2,4-dimethyl-2-(trans-4-(methylamino)cyclohexyl)-7,8-dihydro-[1,3]dioxolo[4,5-g]isoquinolin-5(6H)-one] | 100% | – | – | 1.48 nM | 66% | 1.4 nM | 9.7 nM | 3.2 nM | – | – |
| Cc1cc(C)c(CN2CCc3c(C)c4c(c(C)c3C2=O)OC(C)([C@H]2CC[C@H](N(C)C)CC2)O4)c(=O)[nH]1 (stereo partly drawn) [Compound 39, 6-((4,6-dimethyl-2-oxo-1,2-dihydropyridin-3-yl)methyl)-2-(trans-4-(dimethylamino)cyclohexyl)-2,4,9-trimethyl-7,8-dihydro-[1,3]dioxolo[4,5-g]isoquinolin-5(6H)-one] | 80% | 3650 ng·h/mL | – | 0.76 to 0.99 nM | 62% | 1.2 to 6.2 nM | 9.7 to 30 nM | 3.2 to 8.4 nM | – | – |
| COc1cc(C)[nH]c(=O)c1CN1CCc2c(C)c3c(c(C)c2C1=O)OC(C)([C@H]1CC[C@H](N(C)C)CC1)O3 (stereo partly drawn) [Compound 42, 2-(trans-4-(dimethylamino)cyclohexyl)-6-((4-methoxy-6-methyl-2-oxo-1,2-dihydropyridin-3-yl)methyl)-2,4,9-trimethyl-7,8-dihydro-[1,3]dioxolo[4,5-g]isoquinolin-5(6H)-one] | 88% | – | – | 0.97 to 1.41 nM | 74% | 3.4 to 6 nM | 31 to 34 nM | 2.6 to 8.8 nM | – | – |
| CCCc1cc(C)[nH]c(=O)c1CN1CCc2c(C)c3c(c(C)c2C1=O)OC(C)([C@H]1CC[C@H](N(C)C)CC1)O3 (stereo partly shown) [Compound 43] | 61% | – | – | 6.76 nM | 52% | 1.4 nM | 8.1 nM | 58 nM | – | – |
| Cc1cc(C)c(CN2CCc3c(Br)c4c(c(C)c3C2=O)OC(C)([C@H]2CC[C@H](N(C)C)CC2)O4)c(=O)[nH]1 (stereo partly drawn) [Compound 48, 9-bromo-6-((4,6-dimethyl-2-oxo-1,2-dihydropyridin-3-yl)methyl)-2-(trans-4-(dimethylamino)cyclohexyl)-2,4-dimethyl-7,8-dihydro-[1,3]dioxolo[4,5-g]isoquinolin-5(6H)-one] | 52% | 17300 to 18700 ng·h/mL | – | 0.77 nM | 54% | – | – | 3.7 to 12.4 nM | – | 2.8 to 3.2 h |
